Where no end group is shown, it is not given here. Where only a bound is given, the exact number is not on record here.

Drawing on article PMC5789083, “Mechanisms driving the antibacterial and antibiofilm properties of Hp1404 and its analogue peptides against multidrug-resistant Pseudomonas aeruginosa” (Scientific Reports, 2018), this text covers MIC for 4 substances.

In this test the test system is Pseudomonas aeruginosa and MRPA strains. Nature of the test: microbe, parasite or virus in culture. In kind it is cell-based. To be noted: broth micro-dilution, 37 °C, 18–24 h. The text has this:
Gram-negative (Pseudomonas aeruginosa ATCC 27853) bacterial strains were obtained from the ATCC (American Type Culture Collection; Manassas, VA, USA). Multidrug-resistant strains (Pseudomonas aeruginosa 138, 431, 434, 557, 559, 778, 1034, 1162, 3290, 3399, 3592, 3904, 4007, 4319, 4891, 5018, and 671973) were obtained from the Chonnam National University Hospital (Gwangju, South Korea).
We examined the activity of each peptide against both pseudomonas aeruginosa and multidrug-resistant strains. The minimal inhibitory concentrations (MICs) of peptides were determined using the broth micro-dilution assay as described previously. Briefly, bacterial strains were cultivated with shaking overnight at 37 °C. The next day, they were diluted to a density of 2 × 10^5 CFU/mL with growth medium. Peptides were serially diluted with 10 mM sodium phosphate buffer. 50 µL bacterial aliquots were mixed with an equal volume of peptide solution, and incubated at 37 °C for 18–24 h. Inhibition of bacterial growth was determined by measuring the absorbance at 600 nm using a Versa Max microplate reader (Molecular Devices, Sunnyvale, CA, USA). The test was performed in triplicate.
On the technique in general: In broth dilution the organism is exposed to a series of concentrations in liquid medium.

Setting [1] is: P. aeruginosa 138 (multidrug-resistant), triplicate.
[2] abbreviates: P. aeruginosa 431 (multidrug-resistant), triplicate.
[3] abbreviates: P. aeruginosa 434 (multidrug-resistant), triplicate.
Where [4] appears, read: P. aeruginosa 557 (multidrug-resistant), triplicate.
[5] abbreviates: P. aeruginosa 559 (multidrug-resistant), triplicate.
[6] abbreviates: P. aeruginosa 778 (multidrug-resistant), triplicate.
Where [7] appears, read: P. aeruginosa 1034 (multidrug-resistant), triplicate.
Where [8] appears, read: P. aeruginosa 1162 (multidrug-resistant), triplicate.
The mark [9] stands for this setting: P. aeruginosa 3290 (multidrug-resistant), triplicate.
[10] abbreviates: P. aeruginosa 3399 (multidrug-resistant), triplicate.
[11] abbreviates: P. aeruginosa 3543 (multidrug-resistant), triplicate.
[12] abbreviates: P. aeruginosa 3592 (multidrug-resistant), triplicate.
Where [13] appears, read: P. aeruginosa 3904 (multidrug-resistant), triplicate.
Where [14] appears, read: P. aeruginosa 4007 (multidrug-resistant), triplicate.
[15] abbreviates: P. aeruginosa 4319 (multidrug-resistant), triplicate.
Where [16] appears, read: P. aeruginosa 4891 (multidrug-resistant), triplicate.
[17] abbreviates: P. aeruginosa 5018 (multidrug-resistant), triplicate.
The mark [18] stands for this setting: P. aeruginosa 671973 (multidrug-resistant), triplicate.
Where [19] appears, read: P. aeruginosa ATCC 27853, 2 × 10^5 CFU/mL, A600, triplicate.

For Buforin2 [reference compound], the MIC runs as follows: under setting [1], 12.5 µM; under setting [2], 6.25 µM; under setting [3], 6.25 µM; under setting [4], 6.25 µM; under setting [5], 12.5 µM; under setting [6], 12.5 µM. In addition, the MIC is 6.25 µM under setting [7]; 12.5 µM under setting [8]; 6.25 µM under setting [9]; 12.5 µM under setting [10]; 12.5 µM under setting [11]; 3.13 µM under setting [12]. The substance also displayed an MIC under setting [13] of 6.25 µM; an MIC under setting [14] of 12.5 µM; an MIC under setting [15] of 12.5 µM; an MIC under setting [16] of more than 25 µM; an MIC under setting [17] of 12.5 µM; an MIC under setting [18] of 3.13 µM. This substance also yielded an MIC under setting [19] of 25 µM.
Turning to ILGKLWEGVKSI-NH2 [Hp1404-T1], the MIC by setting is: under setting [1], more than 25 µM; under setting [2], more than 25 µM; under setting [3], more than 25 µM; under setting [4], more than 25 µM; under setting [5], more than 25 µM; under setting [6], more than 25 µM. In addition, the MIC by setting is: under setting [7], more than 25 µM; under setting [8], more than 25 µM; under setting [9], more than 25 µM; under setting [10], more than 25 µM; under setting [11], more than 25 µM; under setting [12], more than 25 µM. Besides, the MIC is more than 25 µM under setting [13]; more than 25 µM under setting [14]; more than 25 µM under setting [15]; more than 25 µM under setting [16]; more than 25 µM under setting [17]; more than 25 µM under setting [18]. The substance further displayed an MIC under setting [19] of more than 25 µM.
Regarding ILKKLLEGVKSI-NH2 [Hp1404-T1b], the MIC by setting is: under setting [1], more than 25 µM; under setting [2], more than 25 µM; under setting [3], 25 µM; under setting [4], more than 25 µM; under setting [5], more than 25 µM; under setting [6], more than 25 µM. Besides, the MIC reads like this: under setting [7], more than 25 µM; under setting [8], more than 25 µM; under setting [9], more than 25 µM; under setting [10], more than 25 µM; under setting [11], more than 25 µM; under setting [12], 25 µM. Moreover, the MIC is more than 25 µM under setting [13]; more than 25 µM under setting [14]; more than 25 µM under setting [15]; more than 25 µM under setting [16]; more than 25 µM under setting [17]; more than 25 µM under setting [18]. This substance yielded an MIC under setting [19] of more than 25 µM.
Turning to ILKKLWEGVKSI-NH2 [Hp1404-T1a], the MIC by setting is: under setting [1], more than 25 µM; under setting [2], 25 µM; under setting [3], 25 µM; under setting [4], more than 25 µM; under setting [5], more than 25 µM; under setting [6], more than 25 µM. Moreover, the MIC runs as follows: under setting [7], more than 25 µM; under setting [8], more than 25 µM; under setting [9], more than 25 µM; under setting [10], 25 µM; under setting [11], more than 25 µM; under setting [12], 12.5 µM. The MIC under setting [13] stood at 25 µM; the MIC under setting [14] is reported as more than 25 µM; the MIC under setting [15] is listed as more than 25 µM; the MIC under setting [16] was 25 µM; the MIC under setting [17] was more than 25 µM; the MIC under setting [18] is listed as 25 µM. This substance also registered an MIC under setting [19] of more than 25 µM.
